According to PubChem BioAssay (NCI):
Where “and” joins values, the source holds several entries; their conditions need not be identical. Identical values can stand only once.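 The compound was tested at five concentrations on cells cultured in 96-well plates, with a 48-hour exposure period. GI50: concentration for 50% inhibition of growth. TGI denotes the concentration required for complete inhibition of growth.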

Legend:
Experiment in all cases: NCI-60 cell line screen, 48 h
[1] = system: A498 renal
[2] = system: TK-10 renal
[3] = system: MALME-3M melanoma
[4] = system: CAKI-1 renal
[5] = system: EKVX NSCLC
[6] = system: MDA-MB-231 breast
[7] = system: SF-268 CNS
[8] = system: NCI/ADR-RES ovarian
[9] = system: NCI-H460 lung
[10] = system: SF-295 CNS

Structure (SMILES)	GI50 [1] [µM]	TGI [1] [µM]	GI50 [2]	TGI [2]	GI50 [3]	TGI [3]	GI50 [4]	TGI [4] [µM]	GI50 [5]	TGI [5]	GI50 [6]	TGI [6] [µM]	GI50 [7]	TGI [7]	GI50 [8]	TGI [8]	GI50 [9]	TGI [9] [µM]	GI50 [10]	TGI [10]
CC1(C)N=C(N)N=C(N)N1c1ccc(Cl)cc1	> 100	> 100	9.9 µM	> 100 µM	16.1 µM	> 100 µM	> 100 µM	> 100	0.763 µM	> 100 µM	> 100 µM	> 100	0.688 µM	> 100 µM	> 100 µM	> 100 µM	2.82 µM	> 100	2.9 µM	9.94 µM
COC(=O)c1cc2oc(/C=C3/SC(=S)N(N)C3=O)cc2n1Cc1ccccc1	2.16	6.48	3.2 µM	11.8 µM	1.91 µM	17.7 µM	2.98 µM	20.6	7.17 µM	> 81.8 µM	8.66 µM	26	2.22 µM	7.73 µM	4.61 µM	26.9 µM	3.02 µM	11.6	1.76 µM	6.02 µM
CCc1cnn2c(NCc3ccc[n+]([O-])c3)cc(N3CCCC[C@H]3CCO)nc12	0.0029	0.00904	< 0.0156 µM and 0.00916 µM	1.95 µM and > 2.07 µM	< 0.0126 µM and 0.00754 µM	0.0272 µM and 0.0324 µM	0.0491 µM and 0.00911 µM	> 63.4	< 0.01 µM and 0.00902 µM	0.138 µM and 0.0524 µM	< 0.01 µM and 0.0042 µM	> 100	< 0.01 µM and 0.00348 µM	0.0576 µM and 0.373 µM	0.162 µM and 0.146 µM	2.53 µM and > 6.61 µM	< 0.01 µM and 0.00464 µM	> 44.8	< 0.0129 µM and 0.00732 µM	0.0962 µM and 0.0602 µM
COc1ccc(C2CC(c3ccc(Nc4ccnc5cc(Cl)ccc45)cc3)=NN2C=O)cc1 (stereo not given)	> 100	> 100	20.9 µM	48.2 µM	> 100 µM	> 100 µM	> 100 µM	> 100	> 100 µM	> 100 µM	20.1 µM	> 100	> 100 µM	> 100 µM	7.05 µM	> 100 µM	> 100 µM	> 100	24.8 µM	> 100 µM
Cc1ccc(C=C2C(Cl)=C(Cl)C(Cl)=C2Cl)cc1	1.43	2.91	0.972 µM	2.55 µM	0.933 µM	2.62 µM	0.503 µM	2.16	1.4 µM	4.28 µM	1.22 µM	4.76	0.617 µM	2.28 µM	0.324 µM	1.52 µM	1.66 µM	3.88	1.55 µM	3.93 µM
C#Cc1cccc(Nc2ncnc3ccc(OCCCCNCCS(C)(=O)=O)cc23)c1	3.18	9.75	0.238 µM	6.27 µM	4.88 µM	9.47 µM	2.79 µM	> 25	0.161 µM	> 25 µM	5.11 µM	11.7	6.13 µM	> 23.7 µM	11.4 µM	> 25 µM	10.5 µM	> 25	8.84 µM	> 25 µM
COc1ccc(NC2=C(I)C(=O)c3ncccc3C2=O)cc1	1.74	3.28	2.14 µM	3.96 µM	1.19 µM	2.44 µM	1.21 µM	2.62	1.73 µM	3.68 µM	2.08 µM	7.64	1.28 µM	4.23 µM	1.57 µM	4.41 µM	0.647 µM	2.24	1.67 µM	3.16 µM
C/C(=N\OCC(O)CNCCSCc1ccccc1)c1ccccc1Cl (stereo not given)		31.9		35.3 µM		37.2 µM		34.6		40.6 µM		35		34.6 µM		41 µM		52.3		36.2 µM
COc1c(/C=C/C=O)cc2c(c1OC)OCO2		3.15		> 100 µM		64 µM		29.1		> 100 µM		80		> 100 µM		> 100 µM		> 100		52.1 µM
N#Cc1c(NC(=O)c2ccc(F)cc2)sc2c1CCCC2	> 25	> 25	> 25 µM	> 25 µM	> 25 µM	> 25 µM	> 25 µM	> 25	> 25 µM	> 25 µM	> 25 µM	> 25	> 25 µM	> 25 µM	> 25 µM	> 25 µM	> 25 µM	> 25	> 25 µM	> 25 µM
COC1=C(C)C(=O)c2c(c(CCCl)c3n2CCC3OC(C)=O)C1=O (stereo not given)	0.0632	0.166	0.26 µM	0.626 µM	0.188 µM	0.414 µM	0.35 µM	2.15	2.09 µM	7.3 µM	17.5 µM	61.7	0.31 µM	17.6 µM	0.447 µM	8.47 µM	0.0389 µM	1.29	0.153 µM	0.864 µM
CN(C)CC(=O)Nc1ccc2ncnc(Nc3ccc(Oc4cccc(C(F)(F)F)c4)c(Cl)c3)c2c1	1.62	4.92	1.71 µM	5.03 µM	1.68 µM	3.36 µM	1.71 µM	7.54	1.7 µM	8.05 µM	1.54 µM	3.29	1.97 µM	5.44 µM	3.06 µM	13.2 µM	1.76 µM	3.45	2.02 µM	4.28 µM
CCOC(=O)C1=C(C)NC(=O)NC1CN1C(=O)c2ccccc2C1=O (stereo not given)	> 100	> 100	> 100 µM	> 100 µM	> 100 µM	> 100 µM	> 100 µM	> 100	> 100 µM	> 100 µM	> 100 µM	> 100	> 100 µM	> 100 µM	> 100 µM	> 100 µM	> 100 µM	> 100	> 100 µM	> 100 µM
